# Test results reported in US6472349B1, “Pyridine-2,3-dicarboxylic acid diamides” (BASF Aktiengesellschaft, priority 1999, dated 2002).
# Columns and labels:
# SOLNI = experiment: Herbicidal activity post-emergence in greenhouse, black nightshade; assay type: in vivo; details: 100 = complete destruction, 0 = no damage
# Excerpt: (§1) The herbicidal action of the pyridine-2,3-dicarboxamides of the formula I was examined in greenhouse experiments: […]
# (§2) The growing containers used were plastic pots containing loamy sand with approximately 3.0% of humus as the substrate. The seeds of the test plants were sown separately for each species.
# (§3) For the post-emergence treatment, the test plants were first grown to a plant height of 3 to 15 cm, depending on the growth habit, and then treated with the active ingredients which had been suspended or emulsified in water. The test plants were either sown directly and grown in the same containers or first grown separately as seedlings and transplanted into the test containers a few days prior to treatment. The rate of application for the post-emergence treatment was 0.5; 0.0625; 0.0313 or 0.0156 kg/ha of a.s.
# (§4) Depending on the species, the plants were kept at 10-25° C. or 20-35° C. The test period extended over 2 to 4 weeks. During this time, the plants were tended, and their response to the individual treatments was evaluated.
# (§5) Evaluation was carried out using a scale from 0 to 100. 100 means no emergence of the plants or complete destruction of at least the above-ground parts, and 0 means no damage or normal course of growth.
# (§6) The plants used in the greenhouse experiments belonged to the following species: […]
# AMARE = experiment: Herbicidal activity post-emergence in greenhouse, redroot pigweed; assay type: in vivo; details: 100 = complete destruction, 0 = no damage
# Excerpt: as §1, §2, §3, §4, §5, §6
# IPOSS = experiment: Herbicidal activity post-emergence in greenhouse, morning glory; assay type: in vivo; details: 100 = complete destruction, 0 = no damage
# Excerpt: as §1, §2, §3, §4, §5, §6
# ALOMY = experiment: Herbicidal activity post-emergence in greenhouse, blackgrass; assay type: in vivo; details: 100 = complete destruction, 0 = no damage
# Excerpt: as §1, §2, §3, §4, §5, §6
# GALAP = experiment: Herbicidal activity post-emergence in greenhouse, catchweed bedstraw; assay type: in vivo; details: application rate 0.5 kg of a.s./ha, 100 = complete destruction, 0 = no damage
# Excerpt: as §1, §2, §3, §4, §5, §6
# ECGCG = experiment: Herbicidal activity post-emergence in greenhouse, barnyard grass; assay type: in vivo; details: application rate 0.5 kg of a.s./ha, 100 = complete destruction, 0 = no damage
# Excerpt: as §1, §2, §3, §4, §5, §6
# VIOAR = experiment: Herbicidal activity post-emergence in greenhouse, violet; assay type: in vivo; details: application rate 0.5 kg of a.s./ha, 100 = complete destruction, 0 = no damage
# Excerpt: as §1, §2, §3, §4, §5, §6
# [1] = application rate 0.0313 kg of a.s./ha
# [2] = application rate 0.0625 kg of a.s./ha
SMILES,"Herbicidal activity (scale 0 to 100), AMARE (AMARE; [1])","Herbicidal activity (scale 0 to 100), AMARE (AMARE; [2])","Herbicidal activity (scale 0 to 100), IPOSS (IPOSS; [1])","Herbicidal activity (scale 0 to 100), IPOSS (IPOSS; [2])","Herbicidal activity (scale 0 to 100), ALOMY (ALOMY; [1])","Herbicidal activity (scale 0 to 100), ALOMY (ALOMY; [2])",melting point [°C],also measured
CCCNC(=O)c1nc(OC)c(Cl)cc1C(=O)Nc1cccc(Cl)c1C,98,100,98,100,75,85,,"Herbicidal activity (scale 0 to 100), SOLNI (SOLNI; [1]): 100; Herbicidal activity (scale 0 to 100), SOLNI (SOLNI; [2]): 100"
CCCNC(=O)c1nc(Cl)c(C)cc1C(=O)Nc1cccc(Cl)c1C,,,,,,,,"Herbicidal activity (scale 0 to 100), GALAP (GALAP): 100; Herbicidal activity (scale 0 to 100), ECHCG (ECGCG): 100; Herbicidal activity (scale 0 to 100), IPOSS (IPOSS; application rate 0.5 kg of a.s./ha): 100; Herbicidal activity (scale 0 to 100), VIOAR (VIOAR): 100"
"CCCNC(=O)c1nc(C)ccc1C(=O)Nc1cccc2ccccc12 [Example 1, N-n-Propyl-3-(1-naphthyl)aminocarbonyl-6-methylpyridine-2-carboxamide]",,,,,,,175 to 178,
"CCCNC(=O)c1nc(C)ccc1C(=O)Nc1cccc(SC)c1C [Example 2, N-n-Propyl-3-(2-methyl-3-methylthiophenyl)aminocarbonyl-6-methylpyridine-2-carboxamide]",,,,,,,151 to 152,
"Cc1ccc2c(n1)C(=O)N(c1cccc(S(C)(=O)=O)c1C)C2=O [Example 3, N-(2-Methyl-3-methylsulfonylphenyl)-6-methylpyridine-2,3-dicarboximide]",,,,,,,180 to 181,
CCCNC(=O)c1nc(C)ccc1C(=O)Nc1cccc2ccccc12 [drawing 67],98,100,98,100,75,85,,
